Test results as given in patent US10457662B2, “Substituted amides for treating and preventing cancer” (The Regents of the University of Michigan, priority 2015, dated 2019).
“Also recorded” adds a separate entry of the source. Where two headings read alike, the source gives them in different places.

Tests used:
PDAC cell lines = assay: Colony formation assay, three pancreatic cancer cell lines; format: cell-based; details: 1 μM; all three cell lines; 24 h treatment
From the text: A) QN523 inhibits colony formation in PDAC cell lines. […] Data points represent Mean±SD from three independent experiments.
The cytotoxicity of QN523 was further evaluated in three pancreatic cancer cell lines using colony formation assay. Using numbers and sizes of colonies as the experimental readout, this long-term assay estimates both anti-proliferative and cytotoxic effect.

[1] = test system: WIPI1, GABARAPL1 and LC3B; assay: Western blotting of autophagy related proteins in MiaPaCa-2; format: cell-based
Experimental: FIG. 12: QN523 induces protein expression of autophagy markers dose-dependently.
Significant induction of the protein was detected at concentrations as low as 0.25 μM.
In addition, primary antibodies for LC3B, survivin, cyclin D1, Stat3 and phosphorylated Stat3 (Y705) are from Cell Signaling Technology.

HCT116 p53+/+ = assay: MTT assay, HCT116 p53+/+; format: cell-based; details: Homo sapiens, HCT-116, MTT assay; colorectal cancer cell line
Experimental: (§1) In order to understand its potential selectivity for different types of cancer and choose the best model for further characterization, QN523 was tested in a panel of 12 cancer cell lines with various genetic and pathological backgrounds (Table 2). […] Because of remarkable potency of QN-523 in pancreatic cancer in-depth preclinical studies in this disease model were performed.

Hep3B = assay: MTT assay, Hep3B; format: cell-based; details: Homo sapiens, HCC cell line
Experimental: as §1

Ovcar 8 = assay: MTT assay, Ovcar 8; format: cell-based; details: Homo sapiens
Experimental: as §1

MiaPaCa-2 = assay: MTT assay, MiaPaCa-2
Experimental: Cells were treated with QN523 for 1, 4, 8, 24, 48, 72 h and left in culture in fresh media. MTT assay was performed 72 h after initiation of treatment. Data points represent Mean±SD from three independent experiments.
(§2) Experiments conducted during the course of developing embodiments for the present invention involved performance of a phenotypic screen of a library of 20,000 small-molecules representing five million compounds. […] Subsequently, a lead optimization campaign was performed to synthesize a series of close analogs. Initially, the 50 analogs were tested in three pancreatic cancer cell lines using MTT assay (Table 1).
(§3) For in vitro studies, compounds were dissolved in DMSO at 10 mM as stock solutions and stored at −20° C. For in vivo studies, QN523 was dissolved in a vehicle containing 5% DMSO, 35% propylene glycol and 60% saline, and administered at 100 uL through intraperitoneal injections.

SNU398 = assay: MTT assay, SNU398; format: cell-based; details: Homo sapiens, SNU-398, HCC cell line
Experimental: as §1

SNU475 = assay: MTT assay, SNU475; format: cell-based; details: Homo sapiens, SNU-475, HCC cell line
Experimental: as §1

BxPC-3 = assay: MTT assay, BxPC-3; format: cell-based; details: Homo sapiens
Experimental: as §2, §3

[2] = test system: three pancreatic cancer cell lines; assay: MTT assay, three pancreatic cancer cell lines; format: cell-based; details: read-out: Mark: IC50 lower than 1 μM in at least one cell line, Table 1
SNU387 = assay: MTT assay, SNU387; format: cell-based; details: Homo sapiens, SNU-387, HCC cell line
Experimental: as §1

MiaPaCa-2 xenograft = MiaPaCa-2 xenograft in NOD/SCID mice; format: in vivo
Experimental: FIG. 2A-E: QN523 inhibits tumor growth of MiaPaCa-2 xenograft without systemic cytotoxicity. A) Tumor volume of MiaPaCa-2 xenograft of vehicle or QN523 treated mice. MiaPaCa-2 xenograft was established in NOD/SCID mice. When tumor size reached 100 mm^3, mice were randomized into vehicle control group (n=5) or treatment group (n=5). QN523 was given by i.p. injection five times a week at 10 mg/kg from day 1 to day 9, then at 20 mg/kg from day 10 to day 44. B) Body weight of vehicle of QN523 treated mice. Representative micrographs of hematoxylin and eosin (H&E)-stained organ sections. Images were taken with Olympus IX83 inverted microscope at 20× magnification. […] D) Tumor volumes of study continued after data shown in panel A. QN523 was given at 20 mg/kg five times a week until day 44. Three mice from each group were euthanized for tissue analysis. Two mice remained in each group after day 44 and QN523 dose was increased to 30 mg/kg from day 45, then to 40 mg/kg from day 51 to day 60. E) Body weight of engrafted mice was not affected by QN523 treatment at 10-40 mg/kg. Error bars indicate Mean±SEM.
To further evaluate the therapeutic potentials of QN523 in pancreatic cancer, MiaPaCa-2 xenograft were implanted in NOD/SCID mice. When tumor size reached 100 mm^3, mice were randomized to either vehicle control (n=5) or QN523 treatment (n=5) group. QN523 was initially given at 10 mg/kg with intraperitoneal administration.

Panc-1 = assay: MTT assay, Panc-1; format: cell-based; details: Homo sapiens
Experimental: as §2, §3

MiaPaCa-2 cells = assay: DAVID analysis of Bru-seq gene lists; details: genes changed at least 2 fold
Experimental: Histogram represents statistical significance in regulation of the indicated theme.
The lists were also analyzed by Database for Annotation, Visualization and Integrated Discovery (DAVID), which identify enriched biological themes with particular focus on gene ontology terms, as well as functional-related gene groups (see, e.g., Huang da W, Sherman B T, Lempicki R A (2009) Nature protocols 4(1): 44-57; Huang da W, Sherman B T, Lempicki R A (2009) Nucleic acids research 37(1): 1-13). […] In addition, induction of apoptosis and disruption of cell cycle might be important cellular events contributing to cytotoxicity of QN523.
Top functional terms identified by DAVID are reported.

Q: With `O=C(Nc1cccc2cccnc12)c1cnccn1` [QN523, Pyrazine-2-carboxylic acid quinolin-8-ylamide] as the compound, how does the “inhibition of colony formation” value (PDAC cell lines) read?
A: Complete inhibition of colony formation

Q: What about the “lowest concentration with significant induction of WIPI1 protein” value ([1]; 72 h) of the same compound?
A: 0.25 µM

Q: What about the “autophagy-related markers WIPI1, GABARAPL1 and LC3B” value ([1]; 72 h treatment, western blotting) of the same compound?
A: Accumulation

Q: And the IC50 (HCT116 p53+/+)?
A: ~100 nM

Q: And the IC50 (Hep3B)?
A: 210 nM

Q: What about the IC50 (Ovcar 8) of the same compound?
A: 300 nM

Q: And the IC50 (MiaPaCa-2; Homo sapiens, MIA PaCa-2, read-out: IC50 Mia PaCa-2, MTT assay, PDAC cell line)?
A: 110 nM

Q: And the IC50 (MiaPaCa-2; Homo sapiens, MIA PaCa-2, read-out: IC50 Values MiaPaCa-2, MTT assay, Mean ± SD, three independent experiments)?
A: 110 ± 30 nM

Q: And the IC50 (MiaPaCa-2; read-out: IC50 Mia PaCa-2, MTT assay, PDAC cell line)?
A: ~100 nM

Q: And the “cytotoxicity versus treatment time” value (MiaPaCa-2; treated 1, 4, 8, 24, 48, 72 h, washed, MTT at 72 h)?
A: time dependent cytotoxicity effect

Q: And the IC50 (SNU398)?
A: 1900 nM

Q: And the IC50 (SNU475)?
A: 2670 nM

Q: And the IC50 (BxPC-3; BXPC-3, read-out: IC50 BxPC-3)?
A: 3300 nM

Q: And the IC50 (BxPC-3; BXPC-3, read-out: IC50 Values BxPC-3)?
A: 3300 ± 260 nM

Q: What about the IC50 [2] of the same compound?
A: < 1000 nM

Q: What about the IC50 (SNU387) of the same compound?
A: 5730 nM

Q: And the “delay in tumor growth” value (MiaPaCa-2 xenograft; 10 mg/kg i.p., day 1 to day 9)?
A: no significant delay in tumor growth

Q: What about the “day from which xenograft growth was delayed” value (MiaPaCa-2 xenograft; 20 mg/kg i.p. from day 10, p<0.01) of the same compound?
A: ≥ 17 days

Q: And the “tumor growth at higher doses” value (MiaPaCa-2 xenograft; 30 mg/kg from day 45, 40 mg/kg day 51 to 60, two mice)?
A: able to delay growth of the tumors

Q: What about the “symptoms of gross toxicity (weakness, weight loss, lethargy)” value (MiaPaCa-2 xenograft; 10-20 mg/kg i.p., 44 days) of the same compound?
A: No symptoms of gross toxicity

Q: And the “body weight of engrafted mice” value (MiaPaCa-2 xenograft; 10-40 mg/kg)?
A: not affected

Q: And the “H&E stained organ sections (liver, kidney, heart, lung, spleen, pancreas)” value (MiaPaCa-2 xenograft; after 44-day treatment)?
A: did not reveal major histopathological changes

Q: And the mean tumor volume (MiaPaCa-2 xenograft; day 44, 10 then 20 mg/kg i.p. five times a week)?
A: 259±38 mm^3

Q: And the “inhibition of tumor growth” value (MiaPaCa-2 xenograft; day 44 versus vehicle control)?
A: 80%

Q: And the systemic toxicity (MiaPaCa-2 xenograft; doses as high as 40 mg/kg)?
A: no systemic toxicity

Q: And the “Ki67 in tumor tissues” value (MiaPaCa-2 xenograft; immunohistochemistry of xenograft sections)?
A: decreased Ki67 levels; also recorded: decreased Ki67 index

Q: What about the IC50 (Panc-1; PANC-1, read-out: IC50 Panc-1) of the same compound?
A: 500 nM

Q: And the IC50 (Panc-1; PANC-1, read-out: IC50 Values Panc-1)?
A: 500 ± 70 nM

Q: What about the biological themes downregulated (MiaPaCa-2 cells) of the same compound?
A: chromosomal proteins and cell cycle genes

Q: And the biological themes upregulated (MiaPaCa-2 cells)?
A: Apoptosis, (bZIP) transcription factors, ER related genes and stress responses
